From patent US10738028B2, “Spiro three-membered ring, spiro five-membered ring peptide deformylase inhibitor and use thereof in antibacteria and anti-tumor” (priority 2016, dated 2020)
In brackets after ≈: the same amount, converted by molar mass.

What was measured:
Format in all cases: cell-based
[1] = test system: methicillin-sensitive Staphylococcus epidermidis (MSSE); test: MIC, two-fold agar dilution (CLSI), clinical isolates
From the text: (§1) 1. The invention adopts the two-fold agar dilution method recommended by the operating procedure of antimicrobial susceptibility testing set by American Clinical and Laboratory Standards Institute (CLSI) to determine the Minimum Inhibitory Concentration (MIC) of the test samples against the tested strains.

[2] = test system: methicillin-resistant Staphylococcus aureus (MRSA); test: as above
From the text: as §1

[3] = test system: Enterococcus faecalis (EFA); test: as above
From the text: as §1

[4] = test system: Enterococcus faecium (EFM); test: as above
From the text: as §1

[5] = test system: methicillin-resistant Staphylococcus epidermidis (MRSE); test: as above
From the text: as §1

[6] = test system: Escherichia coli (including ESBLs, non-ESBLs); test: as above
From the text: as §1

[7] = test system: Moraxella catarrhalis (BCA); test: as above
From the text: as §1

[8] = test system: Streptococcus pneoumoniae (SPN); test: as above
From the text: as §1

[9] = test system: methicillin-sensitive Staphylococcus aureus (MSSA); test: as above
From the text: as §1

[10] = test system: HCT-116 colorectal cancer cell line; test: CCK-8 proliferation inhibition; conditions: Homo sapiens, HCT-116, 72 h, concentration of 30 μM; 72 hours; CCK-8; read-out: HCT116 inhibition rate/%
Summary of the method: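 Proliferation over 72 hours of compound treatment was measured with CCK-8 against a 1‰ DMSO control.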

## O=CN(O)C[C@@H](CC1CCCC1)C(=O)N1CC2(CC2)C[C@H]1C(=O)Nc1cc[nH]n1 [Example 31, (S)-5-((R)-3-cyclopentyl-2-((N-hydroxyformamido)methyl)propionyl)-N-(1H-pyrazol-3-yl)-5-azaspiro[2.4]heptane-6-carboxamide]
[1]; strain MSSE 15-3
  MIC (anti-bacterial activity): 2 µg/mL (≈ 4.96 µM)
[1]; strain MSSE 15-4
  MIC (anti-bacterial activity): 2 µg/mL (≈ 4.96 µM)
[1]; strain MSSE 15-5
  MIC (anti-bacterial activity): 2 µg/mL (≈ 4.96 µM)
[1]; strain MSSE 15-6
  MIC (anti-bacterial activity): 2 µg/mL (≈ 4.96 µM)
[2]; strain MRSA 15-1
  MIC (anti-bacterial activity): 2 µg/mL (≈ 4.96 µM)
[2]; strain MRSA 15-2
  MIC (anti-bacterial activity): 2 µg/mL (≈ 4.96 µM)
[2]; strain MRSA 15-3
  MIC (anti-bacterial activity): 2 µg/mL (≈ 4.96 µM)
[2]; strain MRSA 15-4
  MIC (anti-bacterial activity): 2 µg/mL (≈ 4.96 µM)
[3]; strain EFA 15-1
  MIC (anti-bacterial activity): 32 µg/mL (≈ 79.3 µM)
[3]; strain EFA 15-2
  MIC (anti-bacterial activity): 32 µg/mL (≈ 79.3 µM)
[3]; strain EFA 15-3
  MIC (anti-bacterial activity): 32 µg/mL (≈ 79.3 µM)
[3]; strain EFA 15-4
  MIC (anti-bacterial activity): 32 µg/mL (≈ 79.3 µM)
[3]; strain EFA 15-5
  MIC (anti-bacterial activity): 32 µg/mL (≈ 79.3 µM)
[3]; strain EFA 15-6
  MIC (anti-bacterial activity): 32 µg/mL (≈ 79.3 µM)
[3]; strain EFA 15-9
  MIC (anti-bacterial activity): 32 µg/mL (≈ 79.3 µM)
[4]; strain EFM 15-1
  MIC (anti-bacterial activity): 4 µg/mL (≈ 9.91 µM)
[4]; strain EFM 15-2
  MIC (anti-bacterial activity): 4 µg/mL (≈ 9.91 µM)
[4]; strain EFM 15-3
  MIC (anti-bacterial activity): 2 µg/mL (≈ 4.96 µM)
[4]; strain EFM 15-4
  MIC (anti-bacterial activity): 4 µg/mL (≈ 9.91 µM)
[4]; strain EFM 15-5
  MIC (anti-bacterial activity): 2 µg/mL (≈ 4.96 µM)
[4]; strain EFM 15-6
  MIC (anti-bacterial activity): 4 µg/mL (≈ 9.91 µM)
[5]; strain MRSE 15-1
  MIC (anti-bacterial activity): 0.5 µg/mL (≈ 1.24 µM)
[5]; strain MRSE 15-2
  MIC (anti-bacterial activity): 2 µg/mL (≈ 4.96 µM)
[5]; strain MRSE 15-3
  MIC (anti-bacterial activity): 2 µg/mL (≈ 4.96 µM)
[5]; strain MRSE 15-7
  MIC (anti-bacterial activity): 2 µg/mL (≈ 4.96 µM)
[6]; strain ECO+ 15-1
  MIC (anti-bacterial activity): 32 µg/mL (≈ 79.3 µM)
[6]; strain ECO+ 15-2
  MIC (anti-bacterial activity): > 32 µg/mL
[6]; strain ECO+ 15-3
  MIC (anti-bacterial activity): > 32 µg/mL
[6]; strain ECO+ 15-4
  MIC (anti-bacterial activity): > 32 µg/mL
[6]; strain ECO− 15-1
  MIC (anti-bacterial activity): > 32 µg/mL
[6]; strain ECO− 15-2
  MIC (anti-bacterial activity): > 32 µg/mL
[6]; strain ECO− 15-3
  MIC (anti-bacterial activity): > 32 µg/mL
[6]; strain ECO− 15-4
  MIC (anti-bacterial activity): > 32 µg/mL
[7]; clinical isolate BCA 14-10
  Anti-bacterial activity (MIC), strain BCA 14-10: 2 µg/mL
[7]; strain BCA 14-1
  MIC (anti-bacterial activity): 4 µg/mL (≈ 9.91 µM)
[7]; strain BCA 14-4
  MIC (anti-bacterial activity): 16 µg/mL (≈ 39.7 µM)
[7]; strain BCA 14-5
  MIC (anti-bacterial activity): 2 µg/mL (≈ 4.96 µM)
[7]; strain BCA 14-6
  MIC (anti-bacterial activity): 8 µg/mL (≈ 19.8 µM)
[7]; strain BCA 14-7
  MIC (anti-bacterial activity): 2 µg/mL (≈ 4.96 µM)
[7]; strain BCA 14-8
  MIC (anti-bacterial activity): 4 µg/mL (≈ 9.91 µM)
[8]; strain SPN 16-2
  MIC (anti-bacterial activity): 1 µg/mL (≈ 2.48 µM)
[8]; strain SPN 16-4
  MIC (anti-bacterial activity): 16 µg/mL (≈ 39.7 µM)
[9]; strain MSSA 15-3
  MIC (anti-bacterial activity): 2 µg/mL (≈ 4.96 µM)
[9]; strain MSSA 15-4
  MIC (anti-bacterial activity): 2 µg/mL (≈ 4.96 µM)
[9]; strain MSSA 15-5
  MIC (anti-bacterial activity): 2 µg/mL (≈ 4.96 µM)
[9]; strain MSSA 15-6
  MIC (anti-bacterial activity): 2 µg/mL (≈ 4.96 µM)
[10]
  inhibition at 30 µM: 19%
